# According to BigSolDB 2.1:
compound,measurement,setting,value
CC(C)(C)OC(=O)N[C@@H](CC(=O)O)Cc1cc(F)c(F)cc1F,solubility (mole fraction),"in THF, 280.15 K",0.0933
same,solubility (mole fraction),"in THF, 285.15 K",0.105
same,solubility (mole fraction),"in THF, 290.15 K",0.116
same,solubility (mole fraction),"in THF, 295.15 K",0.129
same,solubility (mole fraction),"in THF, 300.15 K",0.144
same,solubility (mole fraction),"in THF, 305.15 K",0.163
same,solubility (mole fraction),"in THF, 310.15 K",0.187
same,solubility (mole fraction),"in THF, 315.15 K",0.215
same,solubility (mole fraction),"in THF, 320.15 K",0.244
same,solubility (mole fraction),"in THF, 325.15 K",0.279
same,solubility (mole fraction),"in THF, 330.15 K",0.322
same,solubility (mole fraction),"in ethanol, 280.15 K",0.036
same,solubility (mole fraction),"in ethanol, 285.15 K",0.042
same,solubility (mole fraction),"in ethanol, 290.15 K",0.0483
same,solubility (mole fraction),"in ethanol, 295.15 K",0.0559
same,solubility (mole fraction),"in ethanol, 300.15 K",0.0659
same,solubility (mole fraction),"in ethanol, 305.15 K",0.0754
same,solubility (mole fraction),"in ethanol, 310.15 K",0.0894
same,solubility (mole fraction),"in ethanol, 315.15 K",0.103
same,solubility (mole fraction),"in ethanol, 320.15 K",0.125
same,solubility (mole fraction),"in ethanol, 325.15 K",0.147
same,solubility (mole fraction),"in ethanol, 330.15 K",0.173
same,solubility (mole fraction),"in ethyl acetate, 280.15 K",0.0409
same,solubility (mole fraction),"in ethyl acetate, 285.15 K",0.0477
same,solubility (mole fraction),"in ethyl acetate, 290.15 K",0.0556
same,solubility (mole fraction),"in ethyl acetate, 295.15 K",0.0652
same,solubility (mole fraction),"in ethyl acetate, 300.15 K",0.0773
same,solubility (mole fraction),"in ethyl acetate, 305.15 K",0.089
same,solubility (mole fraction),"in ethyl acetate, 310.15 K",0.104
same,solubility (mole fraction),"in ethyl acetate, 315.15 K",0.121
same,solubility (mole fraction),"in ethyl acetate, 320.15 K",0.14
same,solubility (mole fraction),"in ethyl acetate, 325.15 K",0.164
same,solubility (mole fraction),"in ethyl acetate, 330.15 K",0.188
same,solubility (mole fraction),"in methanol, 280.15 K",0.053
same,solubility (mole fraction),"in methanol, 285.15 K",0.0582
same,solubility (mole fraction),"in methanol, 290.15 K",0.0669
same,solubility (mole fraction),"in methanol, 295.15 K",0.0751
same,solubility (mole fraction),"in methanol, 300.15 K",0.085
same,solubility (mole fraction),"in methanol, 305.15 K",0.097
same,solubility (mole fraction),"in methanol, 310.15 K",0.111
same,solubility (mole fraction),"in methanol, 315.15 K",0.129
same,solubility (mole fraction),"in methanol, 320.15 K",0.151
same,solubility (mole fraction),"in methanol, 325.15 K",0.178
same,solubility (mole fraction),"in methanol, 330.15 K",0.211
same,solubility (mole fraction),"in n-butanol, 280.15 K",0.0274
same,solubility (mole fraction),"in n-butanol, 285.15 K",0.0306
same,solubility (mole fraction),"in n-butanol, 290.15 K",0.0353
same,solubility (mole fraction),"in n-butanol, 295.15 K",0.0426
same,solubility (mole fraction),"in n-butanol, 300.15 K",0.0514
same,solubility (mole fraction),"in n-butanol, 305.15 K",0.0619
same,solubility (mole fraction),"in n-butanol, 310.15 K",0.0735
same,solubility (mole fraction),"in n-butanol, 315.15 K",0.0868
same,solubility (mole fraction),"in n-butanol, 320.15 K",0.103
same,solubility (mole fraction),"in n-butanol, 325.15 K",0.126
same,solubility (mole fraction),"in n-butanol, 330.15 K",0.154
same,solubility (mole fraction),"in n-propanol, 280.15 K",0.0312
same,solubility (mole fraction),"in n-propanol, 285.15 K",0.0374
same,solubility (mole fraction),"in n-propanol, 290.15 K",0.0449
same,solubility (mole fraction),"in n-propanol, 295.15 K",0.0522
same,solubility (mole fraction),"in n-propanol, 300.15 K",0.0619
same,solubility (mole fraction),"in n-propanol, 305.15 K",0.0718
same,solubility (mole fraction),"in n-propanol, 310.15 K",0.0847
same,solubility (mole fraction),"in n-propanol, 315.15 K",0.0985
same,solubility (mole fraction),"in n-propanol, 320.15 K",0.116
same,solubility (mole fraction),"in n-propanol, 325.15 K",0.139
same,solubility (mole fraction),"in n-propanol, 330.15 K",0.162
